Entries after “also recorded” stand apart in the source; their conditions may differ.
Tested on: listeria bacteria, in particular Listeria monocytogenes
Assay: Invasion and infection of mammal cells by listeria bacteria
Type: cell-based
Settings: no method or numbers given

Row | Compound | inhibitory action against listeria bacteria (invasion and infection of mammal cells)
1 | CC(=O)N[C@H]1[C@H](O[C@H]2[C@@H](O)[C@@H](CO)O[C@@H](O[C@@H]([C@H](O)[C@@H](O)C=O)[C@H](O)CO)[C@@H]2O)O[C@H](CO)[C@@H](O[C@@H]2O[C@@H](C)[C@@H](O)[C@@H](O)[C@@H]2O)[C@@H]1O[C@@H]1O[C@H](CO)[C@H](O)[C@H](O)[C@H]1O [LNFP II] | did not shown any such action
2 | LNFP III | did not shown any such action
3 | lacto-N-fucopentaose I [LNFP I] | particularly strong inhibitory effect; also recorded: strong, yet dose-dependant inhibitory action

— patent publication US20050004070A1, “Anti-infectious carbohydrates” (priority 2001, published 2005)
